System: Lewis Lung Carcinoma cells
Experiment: Lewis Lung Carcinoma efficacy study
Type: in vivo
Settings: single agent, dosed orally twice daily at 50, 100 or 200 mg/kg; female C57.Bl/6 mice implanted subcutaneously with Lewis Lung Carcinoma cells; relative to control
Method: Female C57.Bl/6 mice (n=40) were implanted subcutaneously with 1×10^6 Lewis Lung Carcinoma cells suspended in PBS. The day following implantation, mice were randomized into 4 groups of n=10 mice to receive the following treatments dosed orally twice daily until study end: 1) Vehicle (water); 2) Compound 10 at 50 mg/kg formulated in water; 3) Compound 10 at 100 mg/kg formulated in water; or 4) Compound 10 at 200 mg/kg formulated in water. Tumors were measured three times per week with digital calipers and tumor volumes calculated with the following formula: tumor volume (mm^3)=(a×b^2/2) where ‘b’ is the smallest diameter and ‘a’ is the largest perpendicular diameter. ***P-value<0.001, ****P-value<0.0001 (Two-sided T-test).

SMILES: C[C@H](N)C(=O)N1C[C@H](CCCB(O)O)[C@](N)(C(=O)O)C1 [Compound 10, (3R,4S)-3-amino-1-((S)-2-aminopropanoyl)-4-(3-boronopropyl)pyrrolidine-3-carboxylic acid]
- tumor volume over time (tumor growth): slows tumor growth relative to control
